Measurements as given in patent US20250186600A1, “EXCIPIENT COMPOUNDS FOR PROTEIN FORMULATIONS” (Comera Life Sciences, Inc., priority 2020, published 2025).
Counter-ions that a name gives are not always drawn. One block for each molecule: values may come before it.

What was measured:
[1] = tested on: proteins described in Table 50; test: DLS diffusion interaction parameter kD (Example 49); format: physicochemical; conditions: mixed 1:1 with protein solution, 20 mM His HCl pH 6, 25° C.
Protocol: The resulting solution was titrated to pH 6 by dropwise addition of 1 M hydrochloric acid. After pH adjustment, the buffer was diluted to a final volume of 1 L in a volumetric flask with Type 1 ultrapure water. All excipients used in this Example, listed in Table 50 below, were of the highest purity, and were obtained from Sigma Aldrich (St. Louis, MO) or Cayman Chemical (Ann Arbor, MI).
A series of six test protein solutions were prepared using the proteins described in Table 50, ranging in protein concentration from about 4 mg/mL to about 20 mg/mL, all in 20 mM His HCl buffer at pH 6. […] A second centrifuge step was completed to remove air bubbles. The diffusion interaction parameter (kD) of these protein-excipient formulations was measured by dynamic light scattering (DLS) in dilute solution as a way of probing the impact of excipients on protein-protein interactions (PPI). […] A more negative kD indicated a stronger net attractive PPI and a more positive kD indicated a stronger net repulsive PPI.

ustekinumab = test: Stabilization at low pH, Sypro orange fluorescence (Example 45); conditions: excipient 5 mg/mL, ustekinumab 1 mg/mL, glycine acidification buffer pH 2.6, Sypro orange fluorescence
[2] = Caffeine solubility with co-solutes during refrigerated storage (Example 61); format: physicochemical; parameters: key: (PPT)—precipitate observed; (—)—clear solution observed; conditions: 50 mM co-solute, 25 mM histidine pH 6, stored 2 to 5° C.
Protocol: The resulting microplates were then sealed with microplate tape and stored in a refrigerator with the temperature maintained in the range of 2 to 5° C. Over the course of storage, the microplates were visually observed for evidence of precipitate in the well.

[3] = excipient stock concentration 100 mM
[4] = excipient stock concentration 200 mM

SMILES: Cl.NCC(O)c1ccc(O)c(O)c1 (racemic) [DL-Norepinephrine HCl]
Omalizumab kD [1, 3]: -19.8 mL/g | Ustekinumab kD [1, 3]: 1.5 mL/g

Omalizumab kD [1, 4]: -21.8 mL/g | Ustekinumab kD [1, 4]: 47.4 mL/g
SMILES: Cn1cnc(CC(=O)O)c1 [1-methyl-4-imidazoleacetic acid]

Omalizumab kD [1, 4]: -30.2 mL/g | Ustekinumab kD [1, 4]: 26.7 mL/g
SMILES: O=S(=O)([O-])CCC[n+]1ccccc1 [3-(1-Pyridinio)-1-propanesulfonate]

Omalizumab kD [1, 4]: -17.4 mL/g | Ustekinumab kD [1, 4]: 1.5 mL/g
SMILES: Nc1ccc(C(=O)O)cc1 [4-Aminobenzoic acid]

Omalizumab kD [1, 4]: -26.6 mL/g | Ustekinumab kD [1, 4]: 21.0 mL/g
SMILES: COc1cc(C=CC(=O)O)ccc1O [4-hydroxy-3-methoxycinnamic acid]

SMILES: C1COCCOCCOCCOCCO1 [15-crown-5 ether]
Omalizumab kD [1, 4]: -25.0 mL/g | Ustekinumab kD [1, 4]: 26.7 mL/g

% change in stability (ustekinumab): 70.6%
SMILES: NC(=NO)c1ccccc1 [Benzamide oxime]

SMILES: CC(=O)CC(=O)OCc1ccccc1 [Benzyl acetonacetate]
Omalizumab kD [1, 3]: -27.0 mL/g | Ustekinumab kD [1, 3]: 26.6 mL/g

Day 1 (visual observation for precipitate) ([2]; caffeine 7.5 mg/mL): — | Day 7 (visual observation for precipitate) ([2]; caffeine 7.5 mg/mL): — | Day 18 (visual observation for precipitate) ([2]; caffeine 7.5 mg/mL): — | Day 27 (visual observation for precipitate) ([2]; caffeine 7.5 mg/mL): — | Day 56 (visual observation for precipitate) ([2]; caffeine 7.5 mg/mL): — | Day 1 (visual observation for precipitate) ([2]; caffeine 10 mg/mL): — | Day 7 (visual observation for precipitate) ([2]; caffeine 10 mg/mL): — | Day 18 (visual observation for precipitate) ([2]; caffeine 10 mg/mL): — | Day 27 (visual observation for precipitate) ([2]; caffeine 10 mg/mL): — | Day 56 (visual observation for precipitate) ([2]; caffeine 10 mg/mL): — | Day 1 (visual observation for precipitate) ([2]; caffeine 12.5 mg/mL): — | Day 7 (visual observation for precipitate) ([2]; caffeine 12.5 mg/mL): — | Day 18 (visual observation for precipitate) ([2]; caffeine 12.5 mg/mL): — | Day 27 (visual observation for precipitate) ([2]; caffeine 12.5 mg/mL): — | Day 56 (visual observation for precipitate) ([2]; caffeine 12.5 mg/mL): — | Day 1 (visual observation for precipitate) ([2]; caffeine 15 mg/mL): — | Day 7 (visual observation for precipitate) ([2]; caffeine 15 mg/mL): — | Day 18 (visual observation for precipitate) ([2]; caffeine 15 mg/mL): — | Day 27 (visual observation for precipitate) ([2]; caffeine 15 mg/mL): PPT | Day 56 (visual observation for precipitate) ([2]; caffeine 15 mg/mL): PPT | Day 1 (visual observation for precipitate) ([2]; caffeine 20 mg/mL): — | Day 7 (visual observation for precipitate) ([2]; caffeine 20 mg/mL): PPT | Day 18 (visual observation for precipitate) ([2]; caffeine 20 mg/mL): PPT | Day 27 (visual observation for precipitate) ([2]; caffeine 20 mg/mL): PPT | Day 56 (visual observation for precipitate) ([2]; caffeine 20 mg/mL): PPT
SMILES: OCc1ccccc1 [Benzyl alcohol]

Omalizumab kD [1, 3]: -26.4 mL/g | Ustekinumab kD [1, 3]: 15.2 mL/g
SMILES: CCN(CC)CCCC(C)Nc1ccnc2cc(Cl)ccc12 (stereo not shown) [Chloroquine Phosphate]

Omalizumab kD [1, 4]: -14.7 mL/g | Ustekinumab kD [1, 4]: -13.6 mL/g
SMILES: N[C@@H]1CON=C1O [Cycloserine]

% change in stability (ustekinumab): 83.1%
SMILES: Nc1ccn([C@@H]2O[C@H](COP(=O)(O)O)[C@@H](O)[C@H]2O)c(=O)n1 [Cytidine monophosphate]

% change in stability (ustekinumab): 11.8%
SMILES: O=C(O)CN(CCN(CC(=O)O)CC(=O)O)CCN(CC(=O)O)CC(=O)O [Diethylenetriaminepentaacetic acid]

% change in stability (ustekinumab): 2.9%
SMILES: Nc1nc(=O)n([C@@H]2CS[C@H](CO)O2)cc1F [Emtricitabine]

Omalizumab kD [1, 4]: -24.1 mL/g | Ustekinumab kD [1, 4]: 24.0 mL/g
SMILES: Nn1nnc2ccccc21 [Excipient 1-aminobenzotriazole, 1-aminobenzotriazole]

Omalizumab kD [1, 4]: -24.5 mL/g | Ustekinumab kD [1, 4]: -0.5 mL/g
SMILES: Cc1ncc[nH]1 [Excipient 2-Methylimidazole, 2-Methylimidazole]

Ustekinumab kD [1, 3]: 36.1 mL/g
SMILES: N=C(N)NC(=O)Cc1c(Cl)cccc1Cl [Guanfacine HCl]

SMILES: COc1cc(CC(=O)O)ccc1O [Homovanillic acid]
Omalizumab kD [1, 4]: -21.2 mL/g | Ustekinumab kD [1, 4]: 5.5 mL/g

Omalizumab kD [1, 4]: -7.9 mL/g | Ustekinumab kD [1, 4]: 1.0 mL/g
SMILES: O=C(O)C1=CCNCC1 [Isoguvacine HCl]

Omalizumab kD [1, 4]: -29.1 mL/g | Ustekinumab kD [1, 4]: 33.2 mL/g
SMILES: O=c1cc(CO)occ1O [Kojic Acid]

Day 1 (visual observation for precipitate) ([2]; caffeine 7.5 mg/mL): — | Day 7 (visual observation for precipitate) ([2]; caffeine 7.5 mg/mL): — | Day 18 (visual observation for precipitate) ([2]; caffeine 7.5 mg/mL): — | Day 27 (visual observation for precipitate) ([2]; caffeine 7.5 mg/mL): — | Day 56 (visual observation for precipitate) ([2]; caffeine 7.5 mg/mL): — | Day 1 (visual observation for precipitate) ([2]; caffeine 10 mg/mL): — | Day 7 (visual observation for precipitate) ([2]; caffeine 10 mg/mL): — | Day 18 (visual observation for precipitate) ([2]; caffeine 10 mg/mL): — | Day 27 (visual observation for precipitate) ([2]; caffeine 10 mg/mL): — | Day 56 (visual observation for precipitate) ([2]; caffeine 10 mg/mL): — | Day 1 (visual observation for precipitate) ([2]; caffeine 12.5 mg/mL): — | Day 7 (visual observation for precipitate) ([2]; caffeine 12.5 mg/mL): — | Day 18 (visual observation for precipitate) ([2]; caffeine 12.5 mg/mL): — | Day 27 (visual observation for precipitate) ([2]; caffeine 12.5 mg/mL): — | Day 56 (visual observation for precipitate) ([2]; caffeine 12.5 mg/mL): PPT | Day 1 (visual observation for precipitate) ([2]; caffeine 15 mg/mL): — | Day 7 (visual observation for precipitate) ([2]; caffeine 15 mg/mL): — | Day 18 (visual observation for precipitate) ([2]; caffeine 15 mg/mL): PPT | Day 27 (visual observation for precipitate) ([2]; caffeine 15 mg/mL): PPT | Day 56 (visual observation for precipitate) ([2]; caffeine 15 mg/mL): PPT | Day 1 (visual observation for precipitate) ([2]; caffeine 20 mg/mL): PPT | Day 7 (visual observation for precipitate) ([2]; caffeine 20 mg/mL): PPT | Day 18 (visual observation for precipitate) ([2]; caffeine 20 mg/mL): PPT | Day 27 (visual observation for precipitate) ([2]; caffeine 20 mg/mL): PPT | Day 56 (visual observation for precipitate) ([2]; caffeine 20 mg/mL): PPT
SMILES: CN1CCCC1=O [N-Methyl-2-pyrrolidone]

Omalizumab kD [1, 4]: -23.6 mL/g | Ustekinumab kD [1, 4]: 27.3 mL/g
SMILES: NC(=O)CN1CCCC1=O [Piracetam]

SMILES: O=C([O-])c1ccccc1.[Na+] [Sodium benzoate]
Day 1 (visual observation for precipitate) ([2]; caffeine 7.5 mg/mL): — | Day 7 (visual observation for precipitate) ([2]; caffeine 7.5 mg/mL): — | Day 18 (visual observation for precipitate) ([2]; caffeine 7.5 mg/mL): — | Day 27 (visual observation for precipitate) ([2]; caffeine 7.5 mg/mL): — | Day 56 (visual observation for precipitate) ([2]; caffeine 7.5 mg/mL): — | Day 1 (visual observation for precipitate) ([2]; caffeine 10 mg/mL): — | Day 7 (visual observation for precipitate) ([2]; caffeine 10 mg/mL): — | Day 18 (visual observation for precipitate) ([2]; caffeine 10 mg/mL): — | Day 27 (visual observation for precipitate) ([2]; caffeine 10 mg/mL): — | Day 56 (visual observation for precipitate) ([2]; caffeine 10 mg/mL): — | Day 1 (visual observation for precipitate) ([2]; caffeine 12.5 mg/mL): — | Day 7 (visual observation for precipitate) ([2]; caffeine 12.5 mg/mL): — | Day 18 (visual observation for precipitate) ([2]; caffeine 12.5 mg/mL): — | Day 27 (visual observation for precipitate) ([2]; caffeine 12.5 mg/mL): — | Day 56 (visual observation for precipitate) ([2]; caffeine 12.5 mg/mL): — | Day 1 (visual observation for precipitate) ([2]; caffeine 15 mg/mL): — | Day 7 (visual observation for precipitate) ([2]; caffeine 15 mg/mL): — | Day 18 (visual observation for precipitate) ([2]; caffeine 15 mg/mL): — | Day 27 (visual observation for precipitate) ([2]; caffeine 15 mg/mL): — | Day 56 (visual observation for precipitate) ([2]; caffeine 15 mg/mL): PPT | Day 1 (visual observation for precipitate) ([2]; caffeine 20 mg/mL): — | Day 7 (visual observation for precipitate) ([2]; caffeine 20 mg/mL): — | Day 18 (visual observation for precipitate) ([2]; caffeine 20 mg/mL): PPT | Day 27 (visual observation for precipitate) ([2]; caffeine 20 mg/mL): PPT | Day 56 (visual observation for precipitate) ([2]; caffeine 20 mg/mL): PPT

SMILES: O.O.O.O.O.O.O.O.O.O.[Na+].[Na+].[O-]B1OB2OB([O-])OB(O1)O2 [Sodium borate]
Omalizumab kD [1, 4]: -28.8 mL/g | Ustekinumab kD [1, 4]: 17.9 mL/g

SMILES: CN(C)CCN(C)C.Cl [Tetramethylethylenediamine HCl]
Omalizumab kD [1, 4]: -14.6 mL/g | Ustekinumab kD [1, 4]: 0.1 mL/g

SMILES: Cc1ncc(CO)c(CO)c1O.Cl [pyridoxine HCl]
Omalizumab kD [1, 4]: -4.3 mL/g | Ustekinumab kD [1, 4]: -0.5 mL/g

Omalizumab kD [1, 3]: -24.1 mL/g | Ustekinumab kD [1, 3]: 26.5 mL/g
SMILES: C#CCN[C@@H]1CCc2ccccc21 [rasagiline mesylate]
